From patent US7799535B1 (priority 1997, dated 2010)
Like-named read-outs stand apart in the source and are kept apart here.

How the values were obtained:
Hsp104 [1] = target: T1, Hsp104 (Saccharomyces cerevisiae, UniProt P31539); type: binding, yeast
35S-PrPC = 35S-PrPC (Mesocricetus auratus, UniProt P04273); type: biochemical, hamster
Sup35 = Sup35 (Saccharomyces cerevisiae, UniProt P05453); test: Circular dichroism spectral shifts of mixtures with Sup35; type: binding, yeast; details: LSB1; 1 hr, 1 mM ATP, 37° C.
Chain of Sup35 (P05453 whole entry): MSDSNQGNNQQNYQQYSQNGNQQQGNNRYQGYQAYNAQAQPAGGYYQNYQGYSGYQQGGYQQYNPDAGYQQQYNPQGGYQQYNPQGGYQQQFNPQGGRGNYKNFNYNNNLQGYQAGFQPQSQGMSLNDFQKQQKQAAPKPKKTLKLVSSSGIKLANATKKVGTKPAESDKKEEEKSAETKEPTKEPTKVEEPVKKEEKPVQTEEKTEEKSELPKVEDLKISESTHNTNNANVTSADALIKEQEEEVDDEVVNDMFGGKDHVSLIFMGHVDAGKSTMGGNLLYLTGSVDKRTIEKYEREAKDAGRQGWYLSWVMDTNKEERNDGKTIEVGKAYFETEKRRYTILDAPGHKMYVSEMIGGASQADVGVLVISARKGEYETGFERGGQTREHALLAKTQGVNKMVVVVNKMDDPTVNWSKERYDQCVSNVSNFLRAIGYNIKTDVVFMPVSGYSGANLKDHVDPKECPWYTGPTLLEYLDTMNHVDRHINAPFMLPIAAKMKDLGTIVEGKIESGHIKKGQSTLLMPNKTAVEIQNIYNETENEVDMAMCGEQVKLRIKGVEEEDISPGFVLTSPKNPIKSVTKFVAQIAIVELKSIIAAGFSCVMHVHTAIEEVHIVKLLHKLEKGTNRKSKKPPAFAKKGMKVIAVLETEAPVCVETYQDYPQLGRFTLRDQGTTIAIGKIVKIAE
Method: Reactions were incubated for 1 hr with 1 mM ATP at 37° C., and transferred to a 0.1 mm path-length cuvette. Spectra were recorded at 25° C. in a Jasco 715 spectropolarimeter (bandwidth 1.0 nm, response time 16 sec, speed 20 nm/min, step resolution 0.2 nm, accumulations 4).

rPrPβ = rPrPβ (Mesocricetus auratus, UniProt P04273); type: binding, hamster; details: LSB2; each at 0.5 mg/ml; 37° C. for 1 hr
Chain of rPrPβ (P04273 90-231 limits assumed): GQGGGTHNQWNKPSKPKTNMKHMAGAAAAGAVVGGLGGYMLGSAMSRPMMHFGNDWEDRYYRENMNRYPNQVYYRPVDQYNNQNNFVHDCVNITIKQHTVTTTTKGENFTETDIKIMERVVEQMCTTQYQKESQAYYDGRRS

Hsp104 [2] = target: T1, Hsp104; type: biochemical, yeast
[3] = reactions seeded with untreated PrPSc
[4] = reactions seeded with partially denatured PrPSc

T1 sequence (P31539 whole entry, looked up): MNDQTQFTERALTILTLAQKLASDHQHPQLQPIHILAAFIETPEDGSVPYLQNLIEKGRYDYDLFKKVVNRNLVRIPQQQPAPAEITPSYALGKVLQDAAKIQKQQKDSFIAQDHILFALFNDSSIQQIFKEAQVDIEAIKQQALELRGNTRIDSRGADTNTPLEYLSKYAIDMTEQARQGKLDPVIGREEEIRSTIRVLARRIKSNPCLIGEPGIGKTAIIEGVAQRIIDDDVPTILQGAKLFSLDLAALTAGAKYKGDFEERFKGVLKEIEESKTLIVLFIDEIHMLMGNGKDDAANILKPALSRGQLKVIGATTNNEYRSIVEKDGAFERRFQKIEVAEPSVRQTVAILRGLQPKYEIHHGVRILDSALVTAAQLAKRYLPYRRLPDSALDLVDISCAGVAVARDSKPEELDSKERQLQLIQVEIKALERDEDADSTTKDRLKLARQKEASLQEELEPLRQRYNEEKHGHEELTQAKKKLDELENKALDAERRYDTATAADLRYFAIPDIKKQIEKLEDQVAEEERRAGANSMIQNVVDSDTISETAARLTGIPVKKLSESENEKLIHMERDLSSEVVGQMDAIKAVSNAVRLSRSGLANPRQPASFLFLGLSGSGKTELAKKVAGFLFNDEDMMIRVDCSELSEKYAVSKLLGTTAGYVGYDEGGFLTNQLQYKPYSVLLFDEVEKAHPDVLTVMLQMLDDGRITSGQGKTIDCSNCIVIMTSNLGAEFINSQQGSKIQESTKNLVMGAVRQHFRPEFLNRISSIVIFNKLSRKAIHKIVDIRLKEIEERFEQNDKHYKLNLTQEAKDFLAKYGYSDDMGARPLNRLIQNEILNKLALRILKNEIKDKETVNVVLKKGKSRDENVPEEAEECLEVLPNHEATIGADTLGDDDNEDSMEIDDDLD
Chain of 35S-PrPC (P04273 23-231 limits assumed): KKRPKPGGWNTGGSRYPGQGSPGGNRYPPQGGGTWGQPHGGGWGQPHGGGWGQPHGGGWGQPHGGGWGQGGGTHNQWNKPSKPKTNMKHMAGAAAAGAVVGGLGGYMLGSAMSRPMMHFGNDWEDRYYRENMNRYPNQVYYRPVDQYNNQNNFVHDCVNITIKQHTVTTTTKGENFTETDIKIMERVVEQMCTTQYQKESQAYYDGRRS

| Compound | effect of chemical chaperones on 35S-PrPC conversion (35S-PrPC; [3]) | effect of chemical chaperones on 35S-PrPC conversion (35S-PrPC; reactions without PrPSc) | effect of chemical chaperones on 35S-PrPC conversion (35S-PrPC; [4]) | CD spectrum of mixture with rPrPβ compared with predicted spectrum (rPrPβ) | also measured |
| --- | --- | --- | --- | --- | --- |
| Nc1ncnc2c1ncn2[C@@H]1O[C@H](COP(=O)(O)OP(=O)(O)OP(=O)(O)O)[C@@H](O)[C@H]1O [ATP] | – | – | – | – | rate of change in CD spectrum with Sup35 and Hsp104 (Hsp104 [1]): markedly increased the rate |
| C[S+](C)[O-] [DMSO, dimethyl sulfoxide] | None of the compounds tested affected | None of the compounds tested affected | – | – | effect on conversion (35S-PrPC; partially denatured PrPSc, higher levels (up to 30%)): virtually eliminated conversion; stimulation of conversion (35S-PrPC; partially denatured PrPSc, intermediate levels (1-3%)): 2-3 fold |
| OCC(O)CO [glycerol] | None of the compounds tested affected | None of the compounds tested affected | no effect | – | – |
| OC[C@H]1O[C@@](CO)(O[C@H]2O[C@H](CO)[C@@H](O)[C@H](O)[C@H]2O)[C@@H](O)[C@@H]1O [sucrose] | None of the compounds tested affected | None of the compounds tested affected | inhibited conversion | – | – |
| OC[C@H]1O[C@H](O[C@H]2O[C@H](CO)[C@@H](O)[C@H](O)[C@H]2O)[C@H](O)[C@@H](O)[C@@H]1O [trehalose] | None of the compounds tested affected | None of the compounds tested affected | inhibited conversion | – | – |
| α-2 macroglobulin | – | – | – | much smaller | CD spectrum of mixture with Hsp104 compared with predicted spectrum (Hsp104 [1]): observed spectra matched the predicted spectra; CD spectrum of mixture with Sup35 compared with predicted spectrum (Sup35): observed spectra matched the predicted spectra |
| α-lactalbumin | – | – | – | much smaller | CD spectrum of mixture with Hsp104 compared with predicted spectrum (Hsp104 [1]): observed spectra matched the predicted spectra; CD spectrum of mixture with Sup35 compared with predicted spectrum (Sup35): observed spectra matched the predicted spectra |
| β-amyloid 1-40: a less amyloidogenic derivative of β-amyloid | – | – | – | – | effect on the ATPase activity of Hsp104 (in words) (Hsp104 [2]): Less inhibition |
| β-amyloid 1-42: amyloidogenic peptide, fragment found in neural plaques associated with Alzheimer's disease | – | – | – | – | effect on the ATPase activity of Hsp104 (in words) (Hsp104 [2]): inhibited |
| β-galactosidase | – | – | – | much smaller | – |
